# What was measured:
# [1] = test system: isolated microspores of Helianthus annuus, 007 Genotype; experiment: Callus induction from isolated microspores with different 2,4-D concentrations in induction media II (Example 4.3); type: cell-based
# Description: Top row: arrows indicate where embryos are located (magnification). Bottom row: corresponding petri dish.
# (§1) Solution of microspore density of 80.000 microspores per ml are centrifuged for 10 min at 200 g and supernatant is decanted. Induction media I (see, for example, Table 3.4) is added to the remaining microspores and divided into plastic tubes. Histone deacetylase inhibitor (HDACi) and colchicine are added to each tube and microspore solutions are stored at 26° C. for 2 days. If the HDACi trichostatin A (TSA) is used, it is dissolved in dimethylsulfoxide (DMSO) to a final concentration of between 1M and 10 μM, preferably 100 nM to 10 μM, more preferably 1 μM to 10 μM, depending on the genotype and the plant donor sources. If colchicine is used, it is dissolved in water to a final concentration of between 1 mg and 500 mg, preferably 10 mg to 200 mg, more preferably 50 mg to 100 mg, depending on the genotype and the plant donor sources. The HDACi and the chromosome doubling agent are removed by centrifugation for 10 min, 200 g. Supernatant is decanted, corresponding amount of induction media I is added, and microspores resuspended. Tubes are incubated at 26° C. in the dark for several days.
# Thereafter, microspore solutions are centrifuged for 10 min at 200 g and supernatant is decanted. Corresponding amounts of induction media II with different 2,4-D concentrations is added according to the treatments (see, for example, Table 3.5) and the microspore solution is plated in petri dishes and placed at 26° C. for callus induction.
# Depending on tissue culture length, and the tissue culture system, at least one antibiotic can be added to Incubation Medium II, such as carbenicillin, penicillin or timentin. One to two weeks after isolation, the first microspore nuclear division can be observed (DAPI staining). Callus structures can be seen by eye after approximately three weeks after isolation.
# [2] = test system: sunflower microspore derived calluses; experiment: Plant regeneration: shoots regenerated per callus unit after callus induction with auxin analogs (Example 4.2); type: cell-based, Helianthus annuus; details: auxin analog used during callus induction (FIG. 8B)
# Description: Thereafter, microspore solutions are centrifuged for 10 min at 200 g and supernatant is decanted. Corresponding amounts of induction media II with different auxin and auxin analogs is added according to the treatments (see, for example, Table 3.3) and the microspore solution is plated in petri dishes and placed at […] for callus induction. Abbreviations used in Table 3.3: 3.5ME=3,5-dimethylphenoxyacetic acid; PHAA=Phenoxyacetic acid; 4-CPA or 4CIPA=p-Chlorophenoxyacetic acid.
# Callus is removed from liquid media and transferred to regeneration media (see, for example, Table 4) with 1 mg/L BAP and grown at 26° C. in the light until plant regeneration is observed, approximately 2 weeks after transfer (FIG. 4)
# [3] = test system: isolated microspores of Helianthus annuus; experiment: Callus induction from isolated microspores with auxin analogs in induction media II (Example 4.2); type: cell-based; details: 1 mg/L (FIG. 8A), control with 2,4-D
# Description: as §1, with “example, Table 3.2) is added” for “example, Table 3.4) is added”, “of between 1 nM and 10” for “of between 1M and 10”, “mg and 300 mg, preferably” for “mg and 500 mg, preferably”, “donor sources. Another antimitotic agent, e.g., oryzalin and/or trifluralin, or any other chromosome doubling agent may be used as well. The HDACi” for “donor sources. The HDACi”, “microspores resuspended. Usually, an auxin or a (synthetic) analog thereof will usually be applied in a concentration of about 0.05 to about 3 mg/L. Tubes are” for “microspores resuspended. Tubes are”, “several days. […]” for “several days.”
# [4] = test system: microspore derived sunflower shoots; experiment: Plant rooting of microspore derived shoots in rooting media (Example 5.2); type: in vivo, Helianthus annuus; details: rooting media (MS), 24° C. in the light, approximately 2 weeks after transfer; auxin 0.5 mg/L
# Description: Shoots are transferred to growing/rooting medium (see, for example, Table 5) with or without one auxin (in the example PAA (phenylacetic acid) or IBA were used) and grown at 24° C. in the light until root formation is observed, approximately 2 weeks after transfer (FIG. 10).
smiles,measurement,setting,value
"O=C(O)COc1ccc(Cl)cc1Cl [2,4-D, 2,4-Dichlorophenoxyacetic acid]",Generation of microspore-derived embryos,"[1]; 0.5, 0.2, 0.1 mg/L 2,4-D and Ctrl 1 mg/L 2,4-D",observed in all treatments
same,Induction of microspore division and callus formation,"[1]; 0.5, 0.2, 0.1 mg/L 2,4-D and Ctrl 1 mg/L in induction media II, 007 Genotype (FIG. 9)",able to induce microspore division and callus formation
same,Callus formation of the treatments compared with control,"[1]; 0.5, 0.2, 0.1 mg/L 2,4-D versus Ctrl 1 mg/L 2,4-D",did not decreased or enhanced callus formation
"Cc1cc(C)cc(OCC(=O)O)c1 [3.5ME, 3,5-dimethylphenoxyacetic acid]",Regeneration: number of shoots regenerated per callus unit in comparison to control,[2],tendency to increase regeneration
"O=C(O)COc1ccc(Cl)cc1 [4CIPA/4-CPA, p-Chlorophenoxyacetic acid]",Regeneration: number of shoots regenerated per callus unit in comparison to control,[2],tendency to increase regeneration
same,Callus quantity (callus number) in comparison to control,[3],tendency to increase callus quantity
"O=C(O)CCCc1c[nH]c2ccccc12 [IBA, indole-3-butyric acid]",Cultivated plants showing root formation,[4],68%
